Data as given in PubChem BioAssay (NCI).
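Growth conditions: 96-well plates. Treatment: test compound, 48 hours, 5 concentrations. Analysis: linear interpolation between bracketing concentrations; unreached endpoints set to highest concentration. TGI marks complete inhibition of growth.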

How the values were obtained:
Assay in all cases: inhibition of tumour cell growth, NCI panel, 48 h
COLO 205 colon = test system: COLO 205 colon
LOX IMVI melanoma = test system: LOX IMVI melanoma
UACC-257 melanoma = test system: UACC-257 melanoma
SK-MEL-28 melanoma = test system: SK-MEL-28 melanoma
RXF 393 renal = test system: RXF 393 renal
K-562 leukemia = test system: K-562 leukemia
HCT-116 colon = test system: HCT-116 colon
MOLT-4 leukemia = test system: MOLT-4 leukemia
OVCAR-5 ovarian = test system: OVCAR-5 ovarian
SN12C renal = test system: SN12C renal
SNB-75 CNS = test system: SNB-75 CNS
MDA-N = test system: MDA-N
SR leukemia = test system: SR leukemia
HS 578T breast = test system: HS 578T breast
OVCAR-3 ovarian = test system: OVCAR-3 ovarian
M14 melanoma = test system: M14 melanoma
DU-145 prostate = test system: DU-145 prostate
UO-31 renal = test system: UO-31 renal
NCI-H23 lung = test system: NCI-H23 lung
HL-60(TB) leukemia = test system: HL-60(TB) leukemia
MALME-3M melanoma = test system: MALME-3M melanoma
HOP-62 NSCLC = test system: HOP-62 NSCLC
SW-620 colon = test system: SW-620 colon
SF-295 CNS = test system: SF-295 CNS
OVCAR-8 ovarian = test system: OVCAR-8 ovarian
NCI-H226 lung = test system: NCI-H226 lung
RPMI-8226 leukemia = test system: RPMI-8226 leukemia
SK-OV-3 ovarian = test system: SK-OV-3 ovarian
MDA-MB-435 = test system: MDA-MB-435
BT-549 breast = test system: BT-549 breast
IGROV1 ovarian = test system: IGROV1 ovarian
SNB-19 CNS = test system: SNB-19 CNS
MDA-MB-231 breast = test system: MDA-MB-231 breast
HT29 colon = test system: HT29 colon
KM12 colon = test system: KM12 colon
U251 CNS = test system: U251 CNS
A498 renal = test system: A498 renal
CAKI-1 renal = test system: CAKI-1 renal
786-0 renal = test system: 786-0 renal
SK-MEL-5 melanoma = test system: SK-MEL-5 melanoma
SK-MEL-2 melanoma = test system: SK-MEL-2 melanoma
ACHN renal = test system: ACHN renal
NCI/ADR-RES ovarian = test system: NCI/ADR-RES ovarian
A549 NSCLC = test system: A549 NSCLC
UACC-62 melanoma = test system: UACC-62 melanoma
EKVX NSCLC = test system: EKVX NSCLC
HOP-92 NSCLC = test system: HOP-92 NSCLC
T-47D breast = test system: T-47D breast
OVCAR-4 ovarian = test system: OVCAR-4 ovarian
NCI-H460 lung = test system: NCI-H460 lung
SF-268 CNS = test system: SF-268 CNS
TK-10 renal = test system: TK-10 renal
MCF7 breast = test system: MCF7 breast
SF-539 CNS = test system: SF-539 CNS
HCT-15 colon = test system: HCT-15 colon
NCI-H522 lung = test system: NCI-H522 lung
PC-3 prostate = test system: PC-3 prostate
CCRF-CEM leukemia = test system: CCRF-CEM leukemia

Measured: TGI

CC(=O)Nc1nc2ncc(C=O)nc2c(=O)[nH]1
not listed: CCRF-CEM leukemia
> 100 µM: all other assays above

COC1CC(C)(NC(C)=O)C2OC(c3ccccc3)OCC2O1 (stereo not given)
not listed: SK-MEL-2 melanoma
> 100 µM: all other assays above

C=C(C)c1ccccc1 (tested in a mixture with another compound)
not listed: CCRF-CEM leukemia
> 100 µM: all other assays above

O=C(O)/C=C/C=C/c1ccc2c(c1)OCO2
not listed: CCRF-CEM leukemia
> 100 µM: all other assays above

CCn1c2ccccc2c2nnc(NCCCO)nc21
not listed: UO-31 renal
> 100 µM: all other assays above
